Laboratory results: ChEMBL document CHEMBL5058541, “EUbOPEN Chemogenomics Library 2 (NanoBRET)” (2022)

Columns and labels:
[1] = target: T1, YEATS domain-containing protein 2 (Homo sapiens) (UniProt Q9ULM3); test: Thermal Shift Assay. Domain: start/stop M1-D141; conditions: Compound concentration 25.0 uM, Protein concentration 2.0 uM
T1 sequence (whole entry): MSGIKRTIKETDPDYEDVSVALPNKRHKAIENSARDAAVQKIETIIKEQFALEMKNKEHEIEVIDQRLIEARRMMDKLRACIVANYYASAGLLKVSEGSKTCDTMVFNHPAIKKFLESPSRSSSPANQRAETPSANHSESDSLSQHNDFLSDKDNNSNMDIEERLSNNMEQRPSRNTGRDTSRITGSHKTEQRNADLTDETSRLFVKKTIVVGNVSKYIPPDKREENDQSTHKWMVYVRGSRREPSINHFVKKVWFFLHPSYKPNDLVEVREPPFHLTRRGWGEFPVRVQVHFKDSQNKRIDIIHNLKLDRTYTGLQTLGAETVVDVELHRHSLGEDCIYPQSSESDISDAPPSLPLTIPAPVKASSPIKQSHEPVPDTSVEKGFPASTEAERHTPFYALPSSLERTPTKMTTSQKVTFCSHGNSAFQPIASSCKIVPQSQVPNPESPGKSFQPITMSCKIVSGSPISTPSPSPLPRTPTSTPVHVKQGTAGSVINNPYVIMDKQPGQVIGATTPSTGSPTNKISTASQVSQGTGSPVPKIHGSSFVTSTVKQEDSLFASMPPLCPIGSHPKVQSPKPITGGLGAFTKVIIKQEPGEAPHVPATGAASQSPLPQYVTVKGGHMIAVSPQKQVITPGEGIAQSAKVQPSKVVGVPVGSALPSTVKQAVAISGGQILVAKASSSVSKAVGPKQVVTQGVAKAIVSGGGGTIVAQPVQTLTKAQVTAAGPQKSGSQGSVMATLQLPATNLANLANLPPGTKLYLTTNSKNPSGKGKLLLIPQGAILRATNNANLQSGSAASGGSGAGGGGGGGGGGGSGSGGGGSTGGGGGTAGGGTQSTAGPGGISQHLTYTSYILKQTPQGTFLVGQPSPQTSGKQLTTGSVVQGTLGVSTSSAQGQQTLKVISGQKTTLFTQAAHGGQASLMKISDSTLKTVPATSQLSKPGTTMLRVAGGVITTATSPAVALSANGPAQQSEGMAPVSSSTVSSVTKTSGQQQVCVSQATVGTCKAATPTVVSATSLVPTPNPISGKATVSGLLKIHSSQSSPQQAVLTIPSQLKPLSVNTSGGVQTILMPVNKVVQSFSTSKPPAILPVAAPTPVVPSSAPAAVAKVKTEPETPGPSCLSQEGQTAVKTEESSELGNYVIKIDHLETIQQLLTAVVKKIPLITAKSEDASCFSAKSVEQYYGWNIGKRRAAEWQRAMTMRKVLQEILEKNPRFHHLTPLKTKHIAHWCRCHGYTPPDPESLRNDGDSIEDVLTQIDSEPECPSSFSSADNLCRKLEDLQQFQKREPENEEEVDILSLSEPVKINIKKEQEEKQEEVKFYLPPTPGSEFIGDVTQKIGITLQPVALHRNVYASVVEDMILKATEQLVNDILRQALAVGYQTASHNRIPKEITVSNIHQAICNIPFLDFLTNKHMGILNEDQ

[2] = target: Fibroblast growth factor receptor 3 (Homo sapiens) (UniProt P22607); conditions: Compound concentration 20.0 uM, Protein concentration 2.0 uM, Result type QC Liability
Chain of Fibroblast growth factor receptor 3 (Homo sapiens) (P22607 23-806 limits assumed): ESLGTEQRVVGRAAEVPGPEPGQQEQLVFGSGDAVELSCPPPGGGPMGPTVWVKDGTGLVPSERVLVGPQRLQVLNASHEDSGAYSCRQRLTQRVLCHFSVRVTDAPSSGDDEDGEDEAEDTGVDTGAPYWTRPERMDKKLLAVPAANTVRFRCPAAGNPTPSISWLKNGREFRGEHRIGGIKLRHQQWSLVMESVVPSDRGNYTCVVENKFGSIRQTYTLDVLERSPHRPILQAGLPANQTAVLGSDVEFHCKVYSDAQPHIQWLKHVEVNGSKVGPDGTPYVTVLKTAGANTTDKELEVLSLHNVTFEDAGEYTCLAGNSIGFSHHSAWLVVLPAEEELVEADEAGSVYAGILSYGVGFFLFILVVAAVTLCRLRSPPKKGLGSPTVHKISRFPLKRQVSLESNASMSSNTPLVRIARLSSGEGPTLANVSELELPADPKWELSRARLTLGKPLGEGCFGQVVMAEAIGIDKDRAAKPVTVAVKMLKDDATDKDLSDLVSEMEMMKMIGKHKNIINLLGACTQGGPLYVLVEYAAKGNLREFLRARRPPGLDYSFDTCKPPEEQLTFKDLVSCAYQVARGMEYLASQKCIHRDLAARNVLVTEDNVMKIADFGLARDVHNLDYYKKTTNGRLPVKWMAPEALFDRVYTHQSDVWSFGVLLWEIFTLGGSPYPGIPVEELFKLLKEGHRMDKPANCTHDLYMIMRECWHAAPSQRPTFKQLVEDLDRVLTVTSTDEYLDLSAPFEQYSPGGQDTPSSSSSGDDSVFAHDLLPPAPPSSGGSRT
Description: Thermal Shift Assay. Domain: start/stop: P449-E759

ΔTm [1]: -0.01 c
ΔTm [2]: -0.162 c
SMILES: CN(C)C(=O)c1ccc(-c2cc(C(=O)N[C@@H]3CCc4ccccc43)no2)cc1O
